Assay results from publication PMC8165160, “Substrate Specificities and Inhibition Pattern of the Solute Carrier Family 10 Members NTCP, ASBT and SOAT” (Frontiers in Molecular Biosciences, 2021).
pIC50: −log10 of the molar value. Where a name gives a salt, the structure may show the parent alone. Read-outs that look alike come from different tables or passages of the source.

Experiments:
SOAT = target: T1, SOAT (Homo sapiens, UniProt Q3KNW5); test: Transport inhibition in SOAT-HEK293 cells; type: cell-based; conditions: substrate inhibitors, 1 min after 5 min preincubation
T1 construct: The full-length open reading frames of NTCP, ASBT, and SOAT were cloned; expressed in transfected cells; host or cells: Flp-In T-REX HEK293 (SOAT-HEK293), tetracycline-induced
T1 sequence (Q3KNW5 1-377): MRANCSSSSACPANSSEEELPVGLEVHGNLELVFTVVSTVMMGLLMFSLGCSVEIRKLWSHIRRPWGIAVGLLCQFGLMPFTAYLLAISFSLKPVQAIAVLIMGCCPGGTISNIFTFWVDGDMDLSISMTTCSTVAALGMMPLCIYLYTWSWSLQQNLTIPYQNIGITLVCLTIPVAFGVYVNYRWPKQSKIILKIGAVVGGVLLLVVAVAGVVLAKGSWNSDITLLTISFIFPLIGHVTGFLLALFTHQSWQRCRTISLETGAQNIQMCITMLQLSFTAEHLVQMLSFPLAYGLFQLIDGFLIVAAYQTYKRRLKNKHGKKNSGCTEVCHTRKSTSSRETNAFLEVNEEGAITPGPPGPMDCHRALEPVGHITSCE
Method: Cells were washed three times with PBS and were preincubated with the respective inhibitor in sodium transport buffer for 5 min at 37°C. Uptake was initiated by adding the respective radiolabeled substrate to the well and incubating for a fixed time as indicated in the figures at 37°C. Transport was terminated by removing the transport buffer and washing five-times with ice-cold PBS. Cell monolayers were lysed in 1 N NaOH with 0.1% SDS and the cell-associated radioactivity and protein content was determined as described above. For uptake inhibition with the myr-preS1 peptide the sodium transport buffer contained additionally MEM-amino acid solution (ThermoFisher) at 1:50 dilution.
All transport or inhibition graphs were generated with GraphPad Prism 6.0 (GraphPad). Determination of IC50 values was done by nonlinear regression analysis using the equation log (inhibitor) vs. response settings. If not stated otherwise in the legends all data represent means ± SD of at least triplicate determinations of representative experiments.
FIGURE 3 Inhibition of NTCP, ASBT, and SOAT with substrate inhibitors. Transport of [^3H]TC, [^3H]TLC, and [^3H]DHEAS was analyzed in NTCP-HEK293, ASBT-HEK293, and SOAT-HEK293 cells in the presence of the substrate inhibitors TC, TLC, and DHEAS at increasing concentrations ranging from 100 nM till 1000 µM. After 5 min of preincubation with the respective inhibitory compound, 200 nM [^3H]TLC, [^3H]TC or [^3H]DHEAS were added for additional 1 min and the cell lysates were analyzed by liquid scintillation counting. Unspecific uptake of HEK293-FlpIn cells was set to 0%. Carrier-specific uptake without inhibitor was set to 100%.
Transport of [^3H]TC, [^3H]TLC, and [^3H]DHEAS was analyzed in NTCP-HEK293, ASBT-HEK293, and SOAT-HEK293 cells in the presence of different supposed non-substrate triterpenoid inhibitors as indicated at increasing concentrations ranging from 100 nM till 1000 µM. After 5 min of preincubation with the respective inhibitory compound, 1 µM [^3H]TLC, [^3H]TC or [^3H]DHEAS were added for additional 10 min at 37°C and the cell lysates were analyzed by liquid scintillation counting. Experiments performed without inhibitor were set to 100%. Means of negative controls were subtracted to calculate net transport rates (expressed as percentage of control). Data represent means ± SD of quadruplicate determinations of representative experiments.

NTCP = target: T2, NTCP (Homo sapiens, UniProt Q14973); test: Substrate screening: sodium-dependent uptake of radiolabeled compounds in NTCP-HEK293 cells; type: cell-based; design: The full-length open reading frames of NTCP, ASBT, and SOAT were cloned; expressed in transfected cells; host or cells: Flp-In T-REX HEK293 (NTCP-HEK293), tetracycline-induced; conditions: NTCP-HEK293, vs sodium-free control
T2 sequence (Q14973 1-349): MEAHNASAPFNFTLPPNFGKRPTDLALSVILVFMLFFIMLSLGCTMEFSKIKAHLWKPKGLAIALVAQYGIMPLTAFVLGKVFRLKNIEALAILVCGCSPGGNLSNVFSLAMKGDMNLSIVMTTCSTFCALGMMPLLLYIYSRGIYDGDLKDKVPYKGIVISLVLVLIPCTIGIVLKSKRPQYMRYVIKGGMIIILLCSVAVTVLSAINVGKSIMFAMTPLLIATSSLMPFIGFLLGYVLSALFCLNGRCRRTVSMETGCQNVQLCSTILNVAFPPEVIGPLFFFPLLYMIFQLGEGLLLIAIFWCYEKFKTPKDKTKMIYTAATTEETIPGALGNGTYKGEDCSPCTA
Method: Stably SLC10 transporter transfected NTCP-HEK293, ASBT-HEK293, SOAT-HEK293 cells and the HEK293-FlpIn maternal cell line were seeded on 24-well plates (if not stated otherwise for individual assays). Well plates were coated with poly-D-lysine prior to seeding of 125,000 cells per well. Cells were grown with 1 ml of standard medium per well with or without tetracycline ([…]) for 72 h to induce carrier expression before respective assays were started. HEK293-FlpIn cells were cultivated with standard medium and served as control.
Uptake experiments were initiated by replacing the preincubation buffer by 500 μL transport buffer containing the radiolabeled test compound and were performed at 37°C. Transport was terminated by removing the transport buffer and washing five-times with ice-cold PBS. Cell monolayers were lysed in 1 N NaOH with 0.1% SDS and the cell-associated radioactivity was determined by liquid scintillation counting.
FIGURE 1 Comparative substrate screening for bile acids and sulfated steroids in NTCP-, ASBT-, and SOAT-HEK293 cells. Transport assays were performed with the indicated substrates in NTCP-HEK293, ABST-HEK293, SOAT-HEK293, and HEK293-FlpIn cells. Cells were washed and equilibrated with Na^+-containing transport buffer (filled bars) or with Na^+-free transport buffer (open bars) at 37°C. For uptake, cells were incubated with radiolabeled steroid compounds at a final concentration of 200 nM in Na^+-containing or Na^+-free transport buffer for 10 min. Radiolabeled bile acids were used at 1 µM concentrations and transport was analyzed over 30 min. HEK293-FlpIn cells served as additional controls. After the indicated time intervals, cells were washed with ice-cold PBS, lysed and subjected to liquid scintillation counting. […] 3-OH, trihydroxylated BAs; 2-OH, dihydroxylated BAs; 1-OH, monohydroxylated BAs.

[1] = SOAT IC50, substrate [3H]DHEAS, 200 nM [3H]DHEAS
[2] = SOAT IC50, substrate [3H]TLC, 200 nM [3H]TLC
[3] = radiolabeled bile acids 1 µM, 30 min

SMILES	pIC50 (SOAT; [1])	pIC50 (SOAT; [2])	Transport activity grading NTCP (mean uptake) (NTCP; radiolabeled steroid compounds 200 nM, 10 min)	Transport activity grading NTCP (mean uptake) (NTCP; [3])	pIC50 (SOAT; 200 nM [3H]DHEAS, read-out: SOAT IC50, substrate [3H]DHEAS)	pIC50 (SOAT; 200 nM [3H]TLC, read-out: SOAT IC50, substrate [3H]TLC)
C[C@]12CC[C@H](OS(=O)(=O)O)CC1=CC[C@@H]1[C@@H]2CC[C@]2(C)C(=O)CC[C@@H]12 [DHEAS, Dehydroepiandrosterone sulfate]	4.29	4.82	+ (Mean uptake “+” for values below 10)	–	–	–
C[C@H](CCC(=O)NCCS(=O)(=O)O)[C@H]1CC[C@H]2[C@@H]3[C@H](O)C[C@@H]4C[C@H](O)CC[C@]4(C)[C@H]3C[C@H](O)[C@]12C [Taurocholic acid]	4.00	3.84	–	+++ (“+++” for values above 1000 pmol/mg protein/30 min)	–	–
C[C@H](CCC(=O)NCCS(=O)(=O)O)[C@H]1CC[C@H]2[C@@H]3CC[C@@H]4C[C@H](O)CC[C@]4(C)[C@H]3CC[C@]12C [Taurolithocholic acid]	–	–	–	+++ (“+++” for values above 1000 pmol/mg protein/30 min)	5.41	5.59
